# Measured values taken from patent publication US10954216B2, “BMP-signal-inhibiting compound” (RIKEN, priority 2016, dated 2021).
# Test system: BMP signal in MDA-231-D-BREFluc/Rluc cells
# Test: BMP signal inhibitory effect (AlphaScreen SureFire SMAD1 p-Ser463/465, BMP-6 stimulation)
# Assay type: cell-based
# Details: not given
# Description: BMP Signal Inhibitory Effect
# A BMP signal inhibitory activity of a compound of the present invention was evaluated according to the following method.
# MDA-231-D-BREFluc/Rluc cells prepared according to the method described in Y. Katsuno et al., Oncogene, 27, 6322 (2008) were incubated at 37° C. for 2 hours together with test compounds, and BMP-6 (commercially available from R&D System, 507-BM-020) was then added thereto, and the mixture was additionally incubated at 37° C. for 30 minutes. A Lysis Buffer and Acceptor mix of AlphaScreen SureFire SMAD1 (p-Ser463/465) assay kit (commercially available from Perkin Elmer, TGRSM1S10K) were sequentially added thereto, the mixture was incubated at room temperature for 2 hours, and AlphaScreen Protein A kit (commercially available from Perkin Elmer, 6760617) was then added thereto, and standard AlphaScreen settings of Alpha Technology—compatible plate reader (commercially available from Perkin Elmer, EnSpire) was used for measurement.
row,SMILES,IC50
1,"CCn1cc(-c2ccnc(Nc3ccc(C4CC5CCC(C4)N5CCOC)cc3)n2)c(-c2cccnc2)n1 (stereo not shown) [Example 85, 4-(1-Ethyl-3-(pyridin-3-yl)-1H-pyrazol-4-yl)-N-(4-(8-(2-methoxyethyl)-8-azabicyclo [3.2.1]octan-3-yl)phenyl)pyrimidin-2-amine]",0.0073 µM
2,"CCn1cc(-c2ccnc(Nc3ccc(N4CC5CCC(C4)N5CCOC)cc3)n2)c(-c2cccnc2)n1 [Example 86, 4-(1-Ethyl-3-(pyridin-3-yl)-1H-pyrazol-4-yl)-N-(4-(8-(2-methoxyethyl)-3,8-diazabicyclo[3.2.1]octan-3-yl)phenyl)pyrimidin-2-amine]",0.0129 µM

# Same assay, conditions: BMP-6 stimulated MDA-231-D-BREFluc/Rluc cells, phospho-SMAD1 AlphaScreen; read-out: IC50
row,SMILES,IC50
1,"COCCN1Cc2ccc(Nc3nccc(-c4cn(CCOC)nc4-c4cccnc4)n3)cc2C1 [Example 62, 2-(2-Methoxyethyl)-N-(4-(1-(2-methoxyethyl)-3-(pyridin-3-yl)-1H-pyrazol-4-yl)pyrimidin-2-yl)isoindolin-5-amine]",0.01 µM
2,"CN1Cc2ccc(Nc3nccc(-c4cn(CC(C)(C)O)nc4-c4cccnc4)n3)cc2C1 [Example 63, 2-Methyl-1-(4-(2-((2-methylisoindolin-5-yl)amino)pyrimidin-4-yl)-3-(pyridin-3-yl)-1H-pyrazol-1-yl)propan-2-ol]",0.0039 µM
3,"COCCn1cc(-c2ccnc(Nc3ccc4c(c3)CCN(C)C4)n2)c(-c2cccnc2)n1 [Example 64, N-(4-(1-(2-Methoxyethyl)-3-(pyridin-3-yl)-1H-pyrazol-4-yl)pyrimidin-2-yl)-2-methyl-1,2,3,4-tetrahydroisoquinolin-6-amine]",0.004 µM
4,"CN1CCc2cc(Nc3nccc(-c4cn(CC(C)(C)O)nc4-c4cccnc4)n3)ccc2C1 [Example 65, 2-Methyl-1-(4-(2-((2-methyl-1,2,3,4-tetrahydroisoquinolin-6-yl)amino)pyrimidin-4-yl)-3-(pyridin-3-yl)-1H-pyrazol-1-yl)propan-2-ol]",0.0033 µM
5,"CCn1cc(-c2ccnc(Nc3ccc4c(c3)CCN(C3CC3)CC4)n2)c(-c2cccnc2)n1 [Example 66, 3-Cyclopropyl-N-(4-(1-ethyl-3-(pyridin-3-yl)-1H-pyrazol-4-yl)pyrimidin-2-yl)-2,3,4,5-tetrahydro-1H-benzo[d]azepin-7-amine]",0.0064 µM
6,"CCn1cc(-c2ccnc(Nc3ccc4c(c3)OCCN(C)C4)n2)c(-c2cccnc2)n1 [Example 67, N-(4-(1-ethyl-3-(pyridin-3-yl)-1H-pyrazol-4-yl)pyrimidin-2-yl)-4-methyl-2,3,4,5-tetrahydrobenzo[f][1,4]oxazepin-8-amine]",0.0053 µM
7,"CCn1cc(-c2ccnc(Nc3ccc(N4CCC(C)(N(C)C)CC4)cc3)n2)c(-c2cccnc2)n1 [Example 68, N-(4-(4-(Dimethylamino)-4-methylpiperidin-1-yl)phenyl)-4-(1-ethyl-3-(pyridin-3-yl)-1H-pyrazol-4-yl)pyrimidin-2-amine]",0.0068 µM
8,"CCn1cc(-c2ccnc(Nc3ccc(N4CCN5CCC4CC5)cc3)n2)c(-c2cccnc2)n1 [Example 69, N-(4-(1,4-diazabicyclo[3.2.2]nonan-4-yl)phenyl)-4-(1-ethyl-3-(pyridin-3-yl)-1H-pyrazol-4-yl)pyrimidin-2-amine]",0.013 µM
9,"CCn1cc(-c2ccnc(Nc3ccc(-c4cnco4)cc3)n2)c(-c2cccnc2)n1 [Example 70, 4-(1-ethyl-3-(pyridin-3-yl)-1H-pyrazol-4-yl)-N-(4-(oxazol-5-yl)phenyl)pyrimidin-2-amine]",0.0336 µM
10,"FC(F)(F)OCCn1cc(-c2ccnc(Nc3ccc(N4CCNCC4)cc3)n2)c(-c2cccnc2)n1 [Example 72, N-(4-(Piperazin-1-yl)phenyl)-4-(3-(pyridin-3-yl)-1-(2-(trifluoromethoxy)ethyl)-1H-pyrazol-4-yl)pyrimidin-2-amine]",0.0134 µM
11,"CCn1cc(-c2ccnc(Nc3ccc4c(c3)CNC4)n2)c(-c2cccnc2)n1 [Example 73, N-(4-(1-ethyl-3-(pyridin-3-yl)-1H-pyrazol-4-yl)pyrimidin-2-yl)isoindolin-5-amine]",0.0072 µM
12,"CC(=O)N1CCN(C(=O)c2ccc(Nc3nccc(-c4cn(CCc5ccccc5)nc4-c4cccnc4)n3)cc2)CC1 [Example 74, 1-(4-(4-((4-(1-phenethyl-3-(pyridin-3-yl)-1H-pyrazol-4-yl)pyrimidin-2-yl)amino)benzoyl)piperazin-1-yl)ethan-1-one]",0.039 µM
13,"COCCN1CCN(c2ccc(Nc3nccc(-c4cn(C5CCOC5)nc4-c4cccnc4)n3)cc2)CC1 (stereo not shown) [Example 76, N-(4-(4-(2-methoxyethyl)piperazin-1-yl)phenyl)-4-(3-(pyridin-3-yl)-1-(tetrahydrofuran-3-yl)-1H-pyrazol-4-yl)pyrimidin-2-amine]",0.0461 µM
14,COCCN1CCN(c2ccc(Nc3nccc(-c4cn(CC5(C)COC5)nc4-c4cccnc4)n3)cc2)CC1 [Example 77],0.0513 µM
15,"CCn1cc(-c2ccnc(Nc3ccc(N4CCN(CC5CCCN5C)CC4)cc3)n2)c(-c2cccnc2)n1 (stereo not shown) [Example 78, 4-(1-Ethyl-3-(pyridin-3-yl)-1H-pyrazol-4-yl)-N-(4-(4-((1-methylpyrrolidin-2-yl)methyl)piperazin-1-yl)phenyl)pyrimidin-2-amine]",0.0127 µM
16,"CN1CCCC1CN1CCN(c2ccc(Nc3nccc(-c4cn(C5COC5)nc4-c4cccnc4)n3)cc2)CC1 (stereo not shown) [Example 79, N-(4-(4-((1-Methylpyrrolidin-2-yl)methyl)piperazin-1-yl)phenyl)-4-(1-(oxetan-3-yl)-3-(pyridin-3-yl)-1H-pyrazol-4-yl)pyrimidin-2-amine]",0.0357 µM
17,"COCCn1cc(-c2ccnc(Nc3ccc(N4CCN(CC5CCCN5C)CC4)cc3)n2)c(-c2cccnc2)n1 (stereo not shown) [Example 80, 4-(1-(2-Methoxyethyl)-3-(pyridin-3-yl)-1H-pyrazol-4-yl)-N-(4-(4-((1-methylpyrrolidin-2-yl)methyl)piperazin-1-yl)phenyl)pyrimidin-2-amine]",0.0267 µM
18,"COCCN1CCN(c2ccc(Nc3nccc(-c4cn(CC(C)(C)O)nc4-c4cccnc4)n3)cc2)CC1 [Example 81, 1-(4-(2-((4-(4-(2-Methoxyethyl)piperazin-1-yl)phenyl)amino)pyrimidin-4-yl)-3-(pyridin-3-yl)-1H-pyrazol-1-yl)-2-methylpropan-2-ol]",0.021 µM
19,COCCN1CCN(c2ccc(Nc3nccc(-c4cn(Cc5ccccc5C#N)nc4-c4cccnc4)n3)cc2)CC1 [Example 82],0.0184 µM
20,"CCn1cc(-c2ccnc(Nc3ccc(N4CCN(CCOC)CC4)c(C#N)c3)n2)c(-c2cccnc2)n1 [Example 83, 5-((4-(1-Ethyl-3-(pyridin-3-yl)-1H-pyrazol-4-yl)pyrimidin-2-yl)amino)-2-(4-(2-methoxyethyl)piperazin-1-yl)benzonitrile]",0.0143 µM
21,"CCn1cc(-c2ccnc(Nc3ccc(N4CCN(CCOC)CC4)nc3)n2)c(-c2cccnc2)n1 [Example 84, 4-(1-Ethyl-3-(pyridin-3-yl)-1H-pyrazol-4-yl)-N-(6-(4-(2-methoxyethyl)piperazin-1-yl)pyridin-3-yl)pyrimidin-2-amine]",0.0193 µM
22,"CCn1cc(-c2ccnc(Nc3ccc(N4CCN(CC(N)=O)CC4)cc3)n2)c(-c2cccnc2)n1 [Example 87, 2-(4-(4-((4-(1-Ethyl-3-(pyridin-3-yl)-1H-pyrazol-4-yl)pyrimidin-2-yl)amino)phenyl)piperazin-1-yl)acetamide]",0.0297 µM
23,"CCn1cc(-c2ccnc(Nc3ccc4c(c3)CN(CC3CCCO3)CC4)n2)c(-c2cccnc2)n1 (stereo not shown) [Example 88, N-(4-(1-Ethyl-3-(pyridin-3-yl)-1H-pyrazol-4-yl)pyrimidin-2-yl)-2-((tetrahydrofuran-2-yl)methyl)-1,2,3,4-tetrahydroisoquinolin-7-amine]",0.0055 µM
24,"CCn1cc(-c2ccnc(Nc3ccc4c(c3)CCN(CC3CCCO3)C4)n2)c(-c2cccnc2)n1 (stereo not shown) [Example 89, N-(4-(1-Ethyl-3-(pyridin-3-yl)-1H-pyrazol-4-yl)pyrimidin-2-yl)-2-((tetrahydrofuran-2-yl)methyl)-1,2,3,4-tetrahydroisoquinolin-6-amine]",0.0057 µM
25,"CCn1cc(-c2ccnc(Nc3ccc4c(c3)CCN(CC(N)=O)C4)n2)c(-c2cccnc2)n1 [Example 90, 2-(6-((4-(1-Ethyl-3-(pyridin-3-yl)-1H-pyrazol-4-yl)pyrimidin-2-yl)amino)-3,4-dihydroisoquinolin-2(1H)-yl)acetamide]",0.0216 µM
26,"CCn1cc(-c2ccnc(Nc3ccc4c(c3)OCCN(CCOC)C4)n2)c(-c2cccnc2)n1 [Example 91, N-(4-(l-Ethyl-3-(pyridin-3-yl)-1H-pyrazol-4-yl)pyrimidin-2-yl)-4-(2-methoxyethyl)-2,3,4,5-tetrahydrobenzo[f][1,4] oxazepin-8-amine]",0.0213 µM
27,"CCn1cc(-c2ccnc(Nc3ccc(OC4CN(CCOC)C4)cc3)n2)c(-c2cccnc2)n1 [Example 92, 4-(1-Ethyl-3-(pyridin-3-yl)-1H-pyrazol-4-yl)-N-(4-((1-(2-methoxyethyl)azetidin-3-yl)oxy)phenyl) pyrimidin-2-amine]",0.0119 µM
28,"CCn1cc(-c2ccnc(Nc3ccc4c(c3)CCN(CCOC)CC4)n2)c(-c2cccnc2)n1 [Example 93, N-(4-(1-Ethyl-3-(pyridin-3-yl)-1H-pyrazol-4-yl)pyrimidin-2-yl)-3-(2-methoxyethyl)-2,3,4,5-tetrahydro-1H-benzo [d] azepin-7-amine]",0.0038 µM
29,"CCn1cc(-c2ccnc(Nc3ccc(N4CCCN(CCOC)CC4)cc3)n2)c(-c2cccnc2)n1 [Example 94, 4-(1-Ethyl-3-(pyridin-3-yl)-1H-pyrazol-4-yl)-N-(4-(4-(2-methoxyethyl)-1,4-diazepan-1-yl)phenyl)pyrimidin-2-amine]",0.0243 µM
